In patent publication US20090143285A1, “TARGET PROTEIN AND TARGET GENE FOR DRUG DISCOVERY AND SCREENING METHOD” (REVERSE PROTEOMICS RESEARCH INSTITUTE CO., LTD., priority 2005, published 2009):
Changes are numbered by the printed parent chain. Entries after “also recorded” stand apart in the source; their conditions may differ. Where two headings read alike, the source gives them in different places.

Assays:
FLJ41991-derived protein = target: T1, FLJ41991-derived protein (Homo sapiens, UniProt P57764, E293G); assay: SEC/MS interaction analysis, FLJ41991-derived protein (GSDMDC1); type: binding; settings: for interaction judged from spectrum intensity of the compound in the SEC spin column filtrate (protein fraction eluted from SEC): spin column method, doses of both compound and protein varied
T1 construct: His-tag (N); made in house; host or cells: Escherichia coli BL21star(DE3)pLysS (pDEST17)
T1 sequence (P57764 265-484 E293G): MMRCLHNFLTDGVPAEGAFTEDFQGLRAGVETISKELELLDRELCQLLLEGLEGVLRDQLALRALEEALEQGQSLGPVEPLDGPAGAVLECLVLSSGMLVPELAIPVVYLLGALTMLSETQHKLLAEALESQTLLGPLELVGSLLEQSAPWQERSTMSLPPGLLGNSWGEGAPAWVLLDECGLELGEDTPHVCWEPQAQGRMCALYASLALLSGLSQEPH
Source text: (§1) To analyze the interactions between commonly used drugs and proteins expressed from human full-length cDNA clones while keeping both the proteins and the compounds in non-modified, non-immobilized state, size exclusion chromatography (SEC) and mass analysis were used in combination. The specific procedures are shown below.
(§2) The compound-protein mixture prepared in step 1 was subjected to chromatography using an SEC column, the compound and the protein were separated by SEC, and the compound that interacted with the bound compound or protein contained in the protein fraction was analyzed using a mass analyzer.
(§3) Protein concentrations were measured using BCA Protein Assay (PIERCE), in consideration of the purity calculated by SDS-PAGE.
(§4) Mass analysis was performed using LCQ DECA XP (Thermoelectron) or Q-TOF micro (Micromass), equipped with an ESI probe. The LC pump used was Agilent 1100 (Yokogawa Analytical Systems), and the autosampler used was HTC-PAL (CTC Analytics) equipped with a cooling stacker. The SEC column used was a micro-LC column or a 384-well spin column. […]
(§5) In the 384-well spin column method, Unifilter 100 (Whatman), packed with 10 μL (dry volume) of Bio-Gel P6 (BIO-RAD) and swollen with milliQ water, was used as the SEC column. […] The SEC spin column was mounted on an acetonitrile-aliquoted 384-well U-bottom plate and centrifuged; the SEC spin column filtrate, which is a protein fraction, was recovered in 50% acetonitrile. The protein precipitate produced by the acetonitrile was removed via centrifugation and filtration for deproteinization; the resulting filtrate was concentrated by centrifugal concentration and re-dissolved in 10 μL of 50% methanol to obtain a mass analysis sample. The mobile phase supplied to the mass analyzer was 0.1% formic acid/50% methanol solution in the positive ion mode, and 0.1% ammonia/50% methanol solution in the negative ion mode; these mobile phases were used at a flow rate of 40 μL/min. 2-μL of mass analysis samples were injected using an autosampler at 2-minute intervals; the mass spectral intensity of the compound was measured to retrieve the spectral intensity of the pharmaceutical compound contained in the SEC spin column filtrate (protein fraction eluted from SEC).

[1] = system: FLJXXXXX-derived proteins; assay: SEC/MS spin column interaction analysis of FLJXXXXX-derived proteins and various compounds (Tables 30-1 to 30-4); type: binding, human
FLJ38897-derived protein = target: T2, FLJ38897-derived protein (Homo sapiens, UniProt P57764); assay: SEC/MS interaction analysis, FLJ38897-derived protein (GSDMDC1); type: binding; settings: spin column method; mixture with protein vs buffer solution alone; data not shown
T2 construct: His-tag (N); made in house; host or cells: Escherichia coli BL21star(DE3)pLysS
T2 sequence (P57764 265-484): T1 sequence (P57764 265-484 E293G) with G29E
Source text: as §1, §2, §3, §4, §5

[2] = compound 12.5 μM, protein 10 μM
[3] = compound 12.5 μM, protein 25 μM
[4] = compound 62.5 μM, protein 10 μM
[5] = compound 62.5 μM, protein 25 μM
[6] = SEC spin column filtrate, spectral intensity increased with doses of compound and protein

spectrum intensity of the compound in the SEC spin column filtrate (FLJ41991-derived protein; compound 12.5 μM, protein 0 μM) | spectrum intensity of the compound in the SEC spin column filtrate (FLJ41991-derived protein; compound 12.5 μM, protein 5 μM) | spectrum intensity of the compound in the SEC spin column filtrate (FLJ41991-derived protein; [2]) | spectrum intensity of the compound in the SEC spin column filtrate (FLJ41991-derived protein; [3]) | spectrum intensity of the compound in the SEC spin column filtrate (FLJ41991-derived protein; compound 25 μM, protein 0 μM) | spectrum intensity of the compound in the SEC spin column filtrate (FLJ41991-derived protein; compound 25 μM, protein 5 μM) | spectrum intensity of the compound in the SEC spin column filtrate (FLJ41991-derived protein; compound 25 μM, protein 10 μM) | spectrum intensity of the compound in the SEC spin column filtrate (FLJ41991-derived protein; compound 25 μM, protein 25 μM) | spectrum intensity of the compound in the SEC spin column filtrate (FLJ41991-derived protein; compound 62.5 μM, protein 0 μM) | spectrum intensity of the compound in the SEC spin column filtrate (FLJ41991-derived protein; compound 62.5 μM, protein 5 μM) | spectrum intensity of the compound in the SEC spin column filtrate (FLJ41991-derived protein; [4]) | spectrum intensity of the compound in the SEC spin column filtrate (FLJ41991-derived protein; [5]) | interaction judged from spectrum intensity of the compound in the SEC spin column filtrate (protein fraction eluted from SEC) (FLJ41991-derived protein) | interaction judged from mass spectrum peak intensity of the compound in the spin column filtrate (FLJ38897-derived protein) | SMILES | FLJ No of the derived protein with which the compound was judged to exhibit a concentration-dependent interaction [1, 6] | FLJ No of the derived protein with which the compound was judged to exhibit a concentration-dependent interaction [1]
143943 | 220928 | 285013 | 489071 | 152947 | 491863 | 560686 | 1352077 | 911727 | 1861766 | 2757526 | 3061987 | concentration-dependent interaction | there was an interaction | CN1[C@@H]2CC[C@H]1C[C@@H](OC(c1ccccc1)c1ccccc1)C2 [benztropine] | FLJ38897; also recorded: FLJ41991 | 
19251 | 32265 | 67187 |  | 37961 | 52442 | 119306 | 1312562 | 58164 | 153267 | 1091123 | 3195671 | concentration-dependent interaction | there was an interaction | O=C(c1ccc(OCCN2CCCCC2)cc1)c1c(-c2ccc(O)cc2)sc2cc(O)ccc12 [raloxifene] | FLJ37909; also recorded: FLJ38897; also recorded: FLJ41991 | 
23424 | 43607 | 83672 | 314285 | 38186 | 71806 | 229107 | 799962 | 35061 | 208220 | 695158 | 2872912 | concentration-dependent interaction | there was an interaction | OCCN1CCN(CCCN2c3ccccc3Sc3ccc(Cl)cc32)CC1 [perphenazine] | FLJ38897; also recorded: FLJ41991 | 
178622 | 175333 | 226245 | 393132 | 161141 | 149738 | 277798 | 490640 | 156021 | 210998 | 626223 | 2564975 | concentration-dependent interaction | there was an interaction | CN(C)CC/C=C1/c2ccccc2Sc2ccc(Cl)cc21 [chlorprothixene] | FLJ38897; also recorded: FLJ41991 | 
24899 | 60014 | 160855 | 908771 | 19274 | 89714 | 732296 | 2056843 | 27212 | 361364 | 2309029 | 5171023 | concentration-dependent interaction | there was an interaction | COc1ccc(CCN2CCC(Nc3nc4ccccc4n3Cc3ccc(F)cc3)CC2)cc1 [astemizole] | FLJ38897; also recorded: FLJ41991 | 
87861 | 162795 | 434899 | 1101486 | 193639 | 276524 | 843648 | 1778376 | 200313 | 1055670 | 3173659 | 6405132 | concentration-dependent interaction | there was an interaction | OCCN1CCN(CCCN2c3ccccc3Sc3ccc(C(F)(F)F)cc32)CC1 [fluphenazine] | FLJ38897; also recorded: FLJ41991 | 

SMILES | spectrum intensity of the compound in the SEC spin column filtrate (FLJ41991-derived protein; compound 12.5 μM, protein 0 μM) | spectrum intensity of the compound in the SEC spin column filtrate (FLJ41991-derived protein; compound 12.5 μM, protein 5 μM) | spectrum intensity of the compound in the SEC spin column filtrate (FLJ41991-derived protein; [2]) | spectrum intensity of the compound in the SEC spin column filtrate (FLJ41991-derived protein; [3]) | spectrum intensity of the compound in the SEC spin column filtrate (FLJ41991-derived protein; compound 25 μM, protein 0 μM) | spectrum intensity of the compound in the SEC spin column filtrate (FLJ41991-derived protein; compound 25 μM, protein 5 μM) | spectrum intensity of the compound in the SEC spin column filtrate (FLJ41991-derived protein; compound 25 μM, protein 10 μM) | spectrum intensity of the compound in the SEC spin column filtrate (FLJ41991-derived protein; compound 25 μM, protein 25 μM) | spectrum intensity of the compound in the SEC spin column filtrate (FLJ41991-derived protein; compound 62.5 μM, protein 0 μM) | spectrum intensity of the compound in the SEC spin column filtrate (FLJ41991-derived protein; compound 62.5 μM, protein 5 μM) | spectrum intensity of the compound in the SEC spin column filtrate (FLJ41991-derived protein; [4]) | spectrum intensity of the compound in the SEC spin column filtrate (FLJ41991-derived protein; [5]) | interaction judged from spectrum intensity of the compound in the SEC spin column filtrate (protein fraction eluted from SEC) (FLJ41991-derived protein) | interaction judged from mass spectrum peak intensity of the compound in the spin column filtrate (FLJ38897-derived protein) | FLJ No of the derived protein with which the compound was judged to exhibit a concentration-dependent interaction [1, 6] | FLJ No of the derived protein with which the compound was judged to exhibit a concentration-dependent interaction [1]
CN(C)C(=O)C(CCN1CCC(O)(c2ccc(Cl)cc2)CC1)(c1ccccc1)c1ccccc1 [loperamide] | 75412 | 200285 | 950587 | 1688197 | 263744 | 863800 | 1856141 | 4462655 | 1579322 | 3520629 | 6073080 | 9496680 | concentration-dependent interaction | there was an interaction |  | FLJ41991; also recorded: FLJ38897
